Assay results from patent US20220008402A1, “INCREASED E-CADHERIN EXPRESSION OR ACTIVITY FOR THE TREATMENT OF INFLAMMATORY DISEASES” (The Cleveland Clinic Foundation, priority 2020, published 2022).
“Also recorded” adds a separate entry of the source.

Columns and labels:
Type in all cases: cell-based, human
[1] = test system: HT-29 cF8 cell monolayers; assay: Epithelial barrier permeability in vitro (TEER, FITC-dextran flux), steady state; conditions: 10 μM
Method: (§1) FIG. 1: E-cadherin-enhancing drugs decrease ionic permeability of model colonic epithelial cell monolayers. Confluent T84 (A), HT-29cF8 (B) and SK-0015 (C) cell monolayers were treated for indicated times with either vehicle, E-cadherin upregulator (ECU, 10 μM), or ML327 (10 μM). Transepithelial electrical resistance (TEER) of the cell monolayers was measured before and during the drug treatment. Data is presented as mean ±SE (n=3); *P<0.05.
(§2) FIG. 2: E-cadherin-enhancing drugs decrease colonic epithelial permeability to large molecules. Confluent T84 (A), HT-29cF8 (B) and SK-C015 (C) cell monolayers were treated with either vehicle, ECU, or ML327, as described in the FIG. 1 legend. Trans-monolayer flux of FITC-dextran was determined at the end of the drug treatment. Data is presented as mean ±SE (n=3); **P<0.05 ***P<0.01.
(§3) Transepithelial electrical resistance (TEER) of cultured T84, HT-29 and SK-C015 intestinal epithelial cell monolayers was measured using an EVOMX voltohmmeter (World Precision Instruments, Sarasota, Fla.). Cells were plated on collagen-coated transwell filters (pore size 3 μm, Thermo-Fisher). The resistance of cell-free collagen-coated filters was subtracted from each experimental point. An in vitro dextran flux assay was performed by a following commonly-used protocol. Intestinal epithelial cell monolayers growing on transwell filters were apically exposed to 1 mg/ml of FITC-labeled dextran (4,000 Da) in HEPES-buffered Hanks balanced salt solution (HBSS). After 120 min of incubation, HBSS samples were collected from the lower chamber, and FITC fluorescence intensity was measured using a Victor^3 V plate reader (Perkin Elmer, Waltham, Mass.) with excitation and emission wavelengths 485 and 544 nm, respectively. After subtracting the fluorescence of dextran-free HBSS the amount of FITC dextran translocated across the epithelial cell monolayer was calculated based on a calibration curve using Prism 5 software (GraphPad, La Jolla, Calif.).
(§4) One set of experiments examined the effects of E-cadherin upregulator (ECU) and ML327 on the barrier properties of normal model intestinal epithelial cell monolayers. Three different human colonic epithelial cell lines, namely, T84, SK-0015 and HT-29 cF8 cells, were used. Cells were plated on collagen-coated transwell filters and allowed to reach confluency and differentiate for 5-7 days after plating. Thereafter, cell monolayers were exposed to either ECU (10 μM), ML327 (10 μM) or vehicle (DMSO). Transepithelial electrical resistance (TEER) was measured before and at different times after addition of E-cadherin-enhancing drugs. A transepithelial flux of FITC-dextran was examined at the end of the drug exposure to evaluate epithelial permeability to large uncharged molecules.

SK-0015 cell monolayers = assay: as above; conditions: 10 μM
Method: as §1, §2, §3, §4

T84 cell monolayers [2] = assay: as above; conditions: 10 μM
Method: as §1, §2, §3, §4

T84 cell monolayers [3] = assay: Cytokine (TNFα/IFNγ)-induced disruption of the epithelial barrier (TEER, FITC-dextran flux); conditions: 10 μM pretreatment 24 h, then TNFα 10 ng/ml + IFNγ 50 ng/ml, 48 h
Method: Confluent T84 cell monolayers were pretreated with either vehicle, or ECU (10 μM) for 24 h. Afterwards, cells were exposed to a combination of TNFα (10 ng/ml) and IFNγ (50 ng/ml) with and without ECU. (A) TEER was measured at the indicated times. (B) FITC-dextran flux was examined after 48 h incubation with cytokines. Data is presented as mean ±SE (n=3); ***P<0.001.
Confluent T84 cell monolayers were pretreated with either vehicle, or ML327 (10 μM) for 24 hours. Afterwards, cells were exposed to a combination of TNFα (10 ng/ml) and IFNγ (50 ng/ml) with and without ML327. (A) TEER was measured at the indicated times. (B) FITC-dextran flux was examined after 48 h incubation with cytokines. Data is presented as mean ±SE (n=3); **P<0.05, ***P<0.001.
as §3
A combination of two cytokines were selected: tumor necrosis factor alpha (TNFα, 10 ng/ml) and interferon-gamma (IFNγ, 50 ng/ml), which are known to compromise barrier integrity and trigger apical junction disassembly in cultured epithelial cell monolayers and intestinal mucosa in mice. Indeed, 48 hour incubation of well-differentiated T84 cell monolayers with TNFα and IFNγ caused a dramatic decrease in TEER (FIGS. 3A, 4A) and increase in transepithelial dextran flux (FIGS. 3B, 4B), which indicates the increase in barrier permeability. […] Next, it was examined if ECU protects epithelial adherens junctions (AJ) and tight junctions (TJ) from cytokine-induced disassembly. Immunofluorescence labeling of a specific AJ marker, E-cadherin, and a TJ marker, ZO-1, was used to visualize structure of different junctional complexes. […]

T84 cell monolayers [4] = assay: Wound healing assay; conditions: 10 μM pretreatment 24 h, migration 24-48 hours
Method: FIG. 8: E-cadherin-enhancing drug promote collective migration of intestinal epithelial cells. Confluent T84 cell monolayers were pretreated with either vehicle, ECU (10 μM) or ML327 (10 μM) for 24 hours. Afterwards, cell monolayers were wounded and allowed to migrate into wound area in the presence of the drugs. Cell monolayers were photographed and wound closure was calculated at the indicated times. Data is presented as mean ±SE (n=3); **P<0.05, ***P<0.01.
Confluent epithelial cell monolayers were mechanically wounded by making a thin scratch wound with a 200 μl pipette tip. The bottom of the well was marked to define the position of the wound and the monolayers were supplied with fresh cell culture medium. The images of a cell-free area at the marked region were acquired at the indicated times after wounding using an inverted bright field microscope equipped with a camera. The percentage of wound closure was calculated using an Image J software (NIH, Bethesda, Md.).
Finally, the effects of E-cadherin-enhancing drugs on epithelial restitution (wound healing) were examined. This is an important question given the fact that epithelial wounds are frequently formed in inflamed intestinal mucosa of IBD patients and wound healing is necessary to restore the integrity of the gut barrier and to achieve remission of chronic inflammatory diseases. […]

[5] = at the end of the drug exposure
[6] = rapid (within 24 h) and sustained (up to 96 h), vs vehicle (DMSO)

In the case of O=C(NCCCCc1ccncc1)c1cc(-c2ccco2)on1 [ECU], the “Transepithelial flux of FITC-dextran” value [1, 5] is reported as “significantly inhibited FITC-dextran flux”, the “Transepithelial electrical resistance (TEER)” value ([1]; up to 96 h, vs vehicle (DMSO)) is reported as “increase in TEER” and the “Transepithelial flux of FITC-dextran” value (SK-0015 cell monolayers; [5]) is reported as “significantly inhibited FITC-dextran flux”. For the same molecule, the “Transepithelial electrical resistance (TEER)” value (SK-0015 cell monolayers; [6]) was “increase in TEER”, the “Transepithelial flux of FITC-dextran” value (T84 cell monolayers [2]; at the end of the drug exposure, T84) was “significantly inhibited FITC-dextran flux” and the “Transepithelial electrical resistance (TEER)” value (T84 cell monolayers [2]; [6]) was “increase in TEER”. For the same molecule, the “Cytokine-induced decrease in TEER” value (T84 cell monolayers [3]) was “prevents cytokine-induced disruption; also recorded: markedly attenuated”, the “Cytokine-induced increase in transepithelial FITC-dextran flux” value (T84 cell monolayers [3]) was “prevents cytokine-induced disruption; also recorded: markedly attenuated” and the “Cell migration during wound healing (wound closure)” value (T84 cell monolayers [4]) was “significantly increased migration”.
